Inhibition and melting point data for 22 compounds are collected here from US20090181948A1, “DIAMINE DERIVATIVE” (KYOWA HAKKO KOGYO CO., LTD., priority 2005, published 2009).

Data set [1] concerns the target T1, histamine H3 receptor (Rattus norvegicus, UniProt Q9QYN8).
T1 construct: from tissue; host or cells: rat striatum (Sprague-Dawley, male, 6 weeks), membrane homogenate
In words: Inhibitory effect on histamine release suppressive action of histamine H3 receptor agonist (Nα-methylhistamine) in rat forebrain synaptosomes. It is filed as biochemical. The following applies: 1 μmol/L test compound and 1 μmol/L Nα-methylhistamine, potassium 30 mmol/L stimulation, read-out: Inhibition ratio of the [3H]-histamine release suppressive action of Nα-methylhistamine. The protocol:
To the forebrains of Sprague-Dawley male rats (6 to 8 weeks of age), a 30-fold volume of a 0.32 mol/L aqueous sucrose solution was added and the forebrains were homogenized. The resulting homogenate was centrifuged (1,000×g, 4° C., 10 min), and to the obtained supernatant, an equivalent volume of Krebs-Ringer solution [120 mmol/L sodium chloride, 0.8 mmol/L potassium chloride, 2.6 mmol/L calcium chloride, 0.67 mmol/L magnesium sulfate, 1.2 mmol/L potassium dihydrogen phosphate, 27.5 mmol/L sodium bicarbonate, 10 mmol/L glucose (pH 7.3)] was added, and the resulting mixture was centrifuged (10,000×g, 4° C., 15 min). To the obtained precipitate, a 15-fold volume of Krebs-Ringer solution was added to suspend the precipitate. Then, the concentration of protein in the resulting tissue homogenate (synaptosomes) was measured and used for a test.
To the synaptosomes (300 μg in terms of protein amount) prepared by the above-described method, a [^3H]-histidine solution [final concentration: […] (740 kBq)/mL]: 6 μl of a 37 MBq/mL (specific activity: […]) solution] was added, and the total volume was adjusted to 300 μL with Krebs-Ringer solution. Then, the resulting mixture was incubated at 37° C. for 30 minutes and centrifuged (10,000×g, 25° C., 3 min). To the resulting precipitate (synaptosomes), 300 μL of Krebs-Ringer solution was added, and the mixture was incubated at 37° C. for 5 minutes and centrifuged (10,000×g, 25° C., 3 min). This procedure was repeated 5 times, whereby washing of synaptosomes was carried out. The resulting synaptosomes were suspended in 100 μL of Krebs-Ringer solution, and the resulting suspension was used for the following procedure.
A test compound and N^α-methylhistamine were separately dissolved in Krebs-Ringer solution to give a concentration of 20 μmol/L (the resulting mixtures were referred to as a test compound solution and a N^α-methylhistamine solution, respectively). To 100 μL of the above-described suspended synaptosomes (300 μg in terms of protein amount), 140 μL of Krebs-Ringer solution was added. Then, 30 μL of the test compound solution and 30 μL of the N^α-methylhistamine solution were added thereto, and the resulting mixture was incubated at 37° C. for 2 minutes. Then, an equivalent volume of a stimulating solution [64 mmol/L sodium chloride, 56.8 mmol/L potassium chloride, 2.6 mmol/L calcium chloride, 0.67 mmol/L magnesium sulfate, 1.2 mmol/L potassium dihydrogen phosphate, 27.5 mmol/L sodium bicarbonate, 10 mmol/L glucose (pH 7.3)] (final potassium concentration: 30 mmol/L) was added, and the resulting mixture was incubated at 37° C. for 2 minutes to release [^3H]-histamine. The reaction mixture was centrifuged (10,000×g, 25° C., 3 min), and the obtained supernatant was passed through Amberlite CG-50 column (250 μL), and the non-adsorbed fractions were discarded. Then, 2 mL of 50 mmol/L [[…]]/hydrochloric acid (HCl) (pH 7.5) (Tris) was passed through the column 3 times, and 2 mL of distilled water, and 1.5 mL of a 0.2 mol/L aqueous sodium hydroxide solution were passed through the column in this order, and the eluted fractions were discarded. Then, 2 mL of a 0.2 mol/L aqueous sodium hydroxide solution was passed through the column, and the eluted fraction was recovered in a scintillation vial. Then, 8 mL of Ultimagold (Perkin Elmer) was added to the recovered eluted solution, and the radioactivity ([^3H]-histamine) was measured using a liquid scintillation counter. The inhibitory action of the test compound on the histamine release suppressive action of N^α-methylhistamine was evaluated by obtaining the inhibition ratio to the histamine release suppressive action in the presence of 1 μmol/L No-methylhistamine and 1 μmol/L of the test compound. The inhibition ratio of the [^3H]-histamine release suppressive action was calculated using the following Equation (2). […]

Data set [2] concerns the target T1, histamine H3 receptor. In words: Histamine H3 receptor binding assay ([3H]-Nα-methylhistamine binding to rat striatum homogenate). The following applies: 1 μmol/L test compound; [3H]-Nα-methylhistamine 1 nmol/L; striata of Sprague-Dawley male rats, 25° C., 1 hour; read-out: Inhibition ratio of [3H]-Nα-methylhistamine binding. The method in brief:
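Rat striatum membranes (20 μg protein) incubated with [3H]-Nα-methylhistamine 1 nmol/L in 50 mmol/L Tris/HCl pH 7.4, 5 mmol/L EDTA, 1 hour at 25° C; bound ligand by filtration and scintillation counting. Nonspecific binding defined with 10 μmol/L thioperamide; % inhibition reported at 1 μmol/L compound.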

T1 sequence (Q9QYN8 whole entry): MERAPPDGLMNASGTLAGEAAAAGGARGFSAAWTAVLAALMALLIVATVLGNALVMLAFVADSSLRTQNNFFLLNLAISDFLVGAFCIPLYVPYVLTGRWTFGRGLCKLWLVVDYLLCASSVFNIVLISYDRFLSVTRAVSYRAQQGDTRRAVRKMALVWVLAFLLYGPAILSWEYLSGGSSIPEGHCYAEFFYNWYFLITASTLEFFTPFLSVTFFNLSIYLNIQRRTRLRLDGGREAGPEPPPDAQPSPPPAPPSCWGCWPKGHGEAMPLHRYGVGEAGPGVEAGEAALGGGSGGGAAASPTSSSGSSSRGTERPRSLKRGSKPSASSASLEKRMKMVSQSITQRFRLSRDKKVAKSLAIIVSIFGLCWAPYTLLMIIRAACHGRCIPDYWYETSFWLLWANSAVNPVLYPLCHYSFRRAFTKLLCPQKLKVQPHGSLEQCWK

In the case of `CC1CCCN1CCCN1C(=C(C#N)C#N)N(CCCN2CCCC2C)c2ccccc21` (centres unmarked) [Compound 124, {1,3-Bis[3-(2-methylpyrrolidin-1-yl)propyl]benzimidazolidin-2-ylidene}malononitrile], the inhibition at 1 µM at histamine H3 receptor [1] was at least 70%; at histamine H3 receptor [2], at least 80%.

As for `C[C@H]1CCCN1CCN1CCN(CCN2CCC[C@@H]2C)C1=C(C#N)C#N` [Compound 188, {1,3-Bis[2-((S)-2-methylpyrrolidin-1-yl)ethyl]imidazolidin-2-ylidene}malononitrile], the inhibition at 1 µM on histamine H3 receptor [1] is at least 70%; at histamine H3 receptor [2], at least 80%.

`N#CC(C#N)=C1N(CCCN2CCCCC2)CCN1C1CCN(Cc2ccccc2)CC1` [Compound 126, [1-(1-Benzylpiperidin-4-yl)-3-(3-piperidinopropyl)imidazolidin-2-ylidene]malononitrile]: the inhibition at 1 µM is at least 70% at histamine H3 receptor [1] and at least 80% on histamine H3 receptor [2].

In the case of `N#CC(C#N)=C1N(CCCN2CCCCC2)CCCN1CCCN1CCCCC1` [Compound 122, [1,3-Bis(3-piperidinopropyl)hexahydropyrimidin-2-ylidene]malononitrile], the inhibition at 1 µM was at least 70% on histamine H3 receptor [1] and at least 80% on histamine H3 receptor [2].

Regarding `N#CC(C#N)=C1N(CCCN2CCCCC2)CCN1C1CCN(CCF)CC1` [Compound 215, {1-[1-(2-Fluoroethyl)piperidin-4-yl]-3-(3-piperidinopropyl)imidazolidin-2-ylidene}malononitrile], the inhibition at 1 µM at histamine H3 receptor [1] is at least 70%; at histamine H3 receptor [2], at least 80%.

In the case of `CC(C)N1CCC(N2CCN(CCCN3CCCCC3)C2=C(C#N)C#N)CC1` [Compound 130, [1-(1-Isopropylpiperidin-4-yl)-3-(3-piperidinopropyl)imidazolidin-2-ylidene]malononitrile], the inhibition at 1 µM on histamine H3 receptor [1] is at least 70%; at histamine H3 receptor [2], at least 80%.

Consider `CC(C)N1CCC(N2CCN(CCN3CCC[C@H]3C)C2=C(C#N)C#N)CC1` [Compound 213, {1-(1-Isopropylpiperidin-4-yl)-3-[2-((R)-2-methylpyrrolidin-1-yl)ethyl]imidazolidin-2-ylidene}malononitrile], for which the inhibition at 1 µM on histamine H3 receptor [1] is at least 70%; at histamine H3 receptor [2], at least 80%.

On to `CC1CCCCN1CCCN1CCN(CCCN2CCCC2C)C1=C(C#N)C#N` (centres unmarked) [Compound 111, {1-[3-(2-Methylpiperidino)propyl]-3-[3-(2-methylpyrrolidin-1-yl)propyl]imidazolidin-2-ylidene}malononitrile], for which the values for the inhibition at 1 µM at histamine H3 receptor [1] and at histamine H3 receptor [2] were at least 70% and at least 80%, respectively.

Consider `CN1CCC(N2CCN(CCCN3CCCCC3)C2=C(C#N)C#N)CC1` [Compound 129, [1-(1-Methylpiperidin-4-yl)-3-(3-piperidinopropyl)imidazolidin-2-ylidene]malononitrile], for which the values for the inhibition at 1 µM on histamine H3 receptor [1] and at histamine H3 receptor [2] were at least 70% and at least 80%, respectively.

On to `C[C@@H]1CCC[C@H](C)N1CCN1CCN(CCCN2CCCCC2)C1=C(C#N)C#N` [Compound 51, {1-[2-(Cis-2,6-dimethylpiperidino)ethyl]-3-(3-piperidinopropyl)imidazolidin-2-ylidene}malononitrile], for which the inhibition at 1 µM on histamine H3 receptor [1] was at least 70%; at histamine H3 receptor [2] it was at least 80%.

A word on the melting point: it is the temperature, or range, at which the solid turns liquid. `N#CC(C#N)=C(NCCN1CCCCC1)N1CCC(CN2CCCCC2)CC1` [Compound 147, [(2-Piperidinoethylamino)(4-piperidinomethylpiperidino)methylene]malononitrile] showed a melting point of 78 to 80 °C. The inhibition at 1 µM on histamine H3 receptor [2] was at least 80%.

`CC1CCCN1C1CCN(C(NCCCN2CCCCC2)=C(C#N)C#N)CC1` (centres unmarked) [Compound 163, {[4-(2-Methylpyrrolidin-1-yl)piperidino](3-piperidinopropylamino)methylene}malononitrile] gave a melting point of 83 to 84 °C. Also, the inhibition at 1 µM at histamine H3 receptor [2] is at least 80%.

On to `C[C@@H]1CCCN1CCCN1CCN(CCCN2CCC[C@@H]2C)C1=C(C#N)C#N` [Compound 117], for which the melting point fell in the range of 87 to 89 °C. At histamine H3 receptor [2], the inhibition at 1 µM is at least 80%.

`CC(C)N1CCC(NC(=C(C#N)C#N)N2CCC(N3CCCCC3)CC2)CC1` [Compound 175, [(1-Isopropylpiperidin-4-ylamino)(4-piperidinopiperidino)methylene]malononitrile]: the results for the inhibition at 1 µM on histamine H3 receptor [1] and at histamine H3 receptor [2] were at least 70% and at least 80%, respectively.

Take `CC1CCCCN1CCN1CCN(CCCN2CCC[C@@H]2C)C1=C(C#N)C#N` (stereo partly drawn) [Compound 198, {3-[2-(2-Methylpiperidino)ethyl]-1-[3-((S)-2-methylpyrrolidin-1-yl)propyl]imidazolidin-2-ylidene}malononitrile]: the melting point fell in the range of 88 to 89 °C. The inhibition at 1 µM at histamine H3 receptor [2] is at least 80%.

`N#CC(C#N)=C1N(CCCN2CCCC2)CCN1CCN1CCCC1` [Compound 60, {1-[2-(Pyrrolidin-1-yl)ethyl]-3-[3-(pyrrolidin-1-yl)propyl]imidazolidin-2-ylidene}malononitrile] displayed a melting point of 70 to 71 °C. Further, at histamine H3 receptor [2], the inhibition at 1 µM was at least 80%.

As for `C[C@@H]1CCCN1CCCN1CCN(CCN2CCC[C@@H]2C)C1=C(C#N)C#N` [Compound 197, {3-[2-((S)-2-methylpyrrolidin-1-yl)ethyl]-1-[3-((R)-2-methylpyrrolidin-1-yl)propyl]imidazolidin-2-ylidene}malononitrile], the melting point was 93 to 94 °C. The inhibition at 1 µM at histamine H3 receptor [2] was at least 80%.

Regarding `CC1CCCN1CCCN1CCN(CCN2CCCC2)C1=C(C#N)C#N` (centres unmarked) [Compound 61, {1-[3-(2-Methylpyrrolidin-1-yl)propyl]-3-[2-(pyrrolidin-1-yl)ethyl]imidazolidin-2-ylidene}malononitrile], the melting point is 95 to 96 °C. For the same compound, on histamine H3 receptor [2], the inhibition at 1 µM was at least 80%.

For the compound `CCN(CCCN1CCCCC1)C(=C(C#N)C#N)N1CCC(N2CCCCC2)CC1` [Compound 162, {[N-ethyl-N-(3-piperidinopropyl)amino](4-piperidinopiperidino)methylene}malononitrile], the melting point was 94 to 96 °C. In addition, the inhibition at 1 µM on histamine H3 receptor [2] was at least 80%.

In the case of `C[C@H]1CCCN1CCCN1CCN(CCCN2CCOCC2)C1=C(C#N)C#N` [Compound 201, {3-(3-Morpholinopropyl)-1-[3-((S)-2-methylpyrrolidin-1-yl)propyl]imidazolidin-2-ylidene}malononitrile], the melting point was 72 to 73 °C. The inhibition at 1 µM on histamine H3 receptor [2] is at least 80%.

Regarding `CC1CCCN1CCCN1CCN(CCCN2CCC(F)(F)C2)C1=C(C#N)C#N` (centres unmarked) [Compound 120, {1-[3-(3,3-Difluoropyrrolidin-1-yl)propyl]-3-[3-(2-methylpyrrolidin-1-yl)propyl]imidazolidin-2-ylidene}malononitrile], the melting point was in the range of 99 to 102 °C. Moreover, the inhibition at 1 µM at histamine H3 receptor [2] was at least 80%.

Compound `CC1CCCN1CCCN1C(=C(C#N)C#N)N(CCN2CCCCC2)c2ccccc21` (centres unmarked) [Compound 200, {1-[3-(2-Methylpyrrolidin-1-yl)propyl]-3-(2-piperidinoethyl)benzimidazolidin-2-ylidene}malononitrile] displayed a melting point of 85 to 86 °C. Further, the inhibition at 1 µM at histamine H3 receptor [2] was at least 80%.
